Measurements taken from PubChem BioAssay (NCI).
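Method: 48-hour compound exposure of cells in 96-well plates, five concentrations, linear interpolation of endpoints. GI50: concentration for 50% inhibition of growth. TGI: concentration producing complete growth inhibition.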

How the values were obtained:
Experiment in all cases: NCI-60 cell line screen, 48 h
HOP-92 NSCLC = tested on: HOP-92 NSCLC
HCT-15 colon = tested on: HCT-15 colon
T-47D breast = tested on: T-47D breast
NCI-H226 lung = tested on: NCI-H226 lung
MDA-MB-468 breast = tested on: MDA-MB-468 breast
K-562 leukemia = tested on: K-562 leukemia
MALME-3M melanoma = tested on: MALME-3M melanoma
SK-OV-3 ovarian = tested on: SK-OV-3 ovarian
BT-549 breast = tested on: BT-549 breast
SK-MEL-28 melanoma = tested on: SK-MEL-28 melanoma
SK-MEL-5 melanoma = tested on: SK-MEL-5 melanoma
COLO 205 colon = tested on: COLO 205 colon
UACC-62 melanoma = tested on: UACC-62 melanoma
CAKI-1 renal = tested on: CAKI-1 renal
IGROV1 ovarian = tested on: IGROV1 ovarian
HCC-2998 colon = tested on: HCC-2998 colon
OVCAR-5 ovarian = tested on: OVCAR-5 ovarian
HS 578T breast = tested on: HS 578T breast
HOP-62 NSCLC = tested on: HOP-62 NSCLC
SN12C renal = tested on: SN12C renal
RPMI-8226 leukemia = tested on: RPMI-8226 leukemia
DU-145 prostate = tested on: DU-145 prostate
SF-539 CNS = tested on: SF-539 CNS
HL-60(TB) leukemia = tested on: HL-60(TB) leukemia

Question: How did the GI50 (HOP-92 NSCLC) turn out when `COc1ccc2c(c1)c(-c1cc3nc(-c4cn(C)c5ncc(Br)cc45)cc(N)n3n1)cn2C` was run?
Answer: 2.05 µM

Question: And the TGI (HOP-92 NSCLC)?
Answer: 4.24 µM

Question: And the GI50 (HCT-15 colon)?
Answer: 1.48 µM

Question: And the TGI (HCT-15 colon)?
Answer: 3.54 µM

Question: What about the GI50 (T-47D breast) of the same molecule?
Answer: 1.66 µM

Question: What about the TGI (T-47D breast) of the same molecule?
Answer: 3.68 µM

Question: What about the GI50 (NCI-H226 lung) of the same molecule?
Answer: 4.19 µM

Question: And the TGI (NCI-H226 lung)?
Answer: 20.1 µM

Question: And the GI50 (MDA-MB-468 breast)?
Answer: 1.32 µM

Question: And the TGI (MDA-MB-468 breast)?
Answer: 2.82 µM

Question: And the GI50 (K-562 leukemia)?
Answer: 3.17 µM

Question: And the TGI (K-562 leukemia)?
Answer: > 100 µM

Question: What about the GI50 (MALME-3M melanoma) of the same molecule?
Answer: 1.92 µM

Question: What about the TGI (MALME-3M melanoma) of the same molecule?
Answer: 3.47 µM

Question: And the GI50 (SK-OV-3 ovarian)?
Answer: 2.41 µM

Question: And the TGI (SK-OV-3 ovarian)?
Answer: 6.25 µM

Question: And the GI50 (BT-549 breast)?
Answer: 2.12 µM

Question: What about the TGI (BT-549 breast) of the same molecule?
Answer: 4.49 µM

Question: And the GI50 (SK-MEL-28 melanoma)?
Answer: 1.61 µM

Question: And the TGI (SK-MEL-28 melanoma)?
Answer: 3.02 µM

Question: What about the GI50 (SK-MEL-5 melanoma) of the same molecule?
Answer: 3.27 µM

Question: What about the TGI (SK-MEL-5 melanoma) of the same molecule?
Answer: 12.1 µM

Question: And the GI50 (COLO 205 colon)?
Answer: 1.81 µM

Question: What about the TGI (COLO 205 colon) of the same molecule?
Answer: 3.44 µM

Question: And the GI50 (UACC-62 melanoma)?
Answer: 1.56 µM

Question: And the TGI (UACC-62 melanoma)?
Answer: 3.1 µM

Question: What about the GI50 (CAKI-1 renal) of the same molecule?
Answer: 1.48 µM

Question: What about the TGI (CAKI-1 renal) of the same molecule?
Answer: 3.3 µM

Question: What about the GI50 (IGROV1 ovarian) of the same molecule?
Answer: 2.04 µM

Question: And the TGI (IGROV1 ovarian)?
Answer: 4.54 µM

Question: What about the GI50 (HCC-2998 colon) of the same molecule?
Answer: 1.66 µM

Question: And the TGI (HCC-2998 colon)?
Answer: 3.16 µM

Question: And the GI50 (OVCAR-5 ovarian)?
Answer: 1.63 µM

Question: And the TGI (OVCAR-5 ovarian)?
Answer: 3.96 µM

Question: And the GI50 (HS 578T breast)?
Answer: 2.29 µM

Question: What about the TGI (HS 578T breast) of the same molecule?
Answer: 6.47 µM

Question: What about the GI50 (HOP-62 NSCLC) of the same molecule?
Answer: 2.09 µM

Question: What about the TGI (HOP-62 NSCLC) of the same molecule?
Answer: 5.98 µM

Question: And the GI50 (SN12C renal)?
Answer: 2.11 µM

Question: What about the TGI (SN12C renal) of the same molecule?
Answer: 6.03 µM

Question: And the GI50 (RPMI-8226 leukemia)?
Answer: 3.32 µM

Question: What about the TGI (RPMI-8226 leukemia) of the same molecule?
Answer: > 100 µM

Question: And the GI50 (DU-145 prostate)?
Answer: 2.79 µM

Question: What about the TGI (DU-145 prostate) of the same molecule?
Answer: 8.15 µM

Question: And the GI50 (SF-539 CNS)?
Answer: 1.67 µM

Question: What about the TGI (SF-539 CNS) of the same molecule?
Answer: 3.13 µM

Question: What about the GI50 (HL-60(TB) leukemia) of the same molecule?
Answer: 2.07 µM

Question: What about the TGI (HL-60(TB) leukemia) of the same molecule?
Answer: 5.39 µM
